# Patent US6630488B1, “Quinolizinones as integrin inhibitors” (Biochem Pharma, Inc., priority 1998, dated 2003)
# Counter-ions that a name gives are not always drawn.
# Tests used:
# placental αvβ3 = molecular target: T1, placental αvβ3 (Homo sapiens, UniProt P05106+P06756); assay: Fibrinogen binding to immobilized αvβ3; conditions: biotinylated-fibrinogen 10 nM, immobilized placental αvβ3; read-out: IC50 values for the fibrinogen binding assay αvβ3
# T1 construct: purified active GP IIb-IIIa (Calbiochem) or olacental αvβ3 at 0.5 μg/ml; from tissue; host or cells: placenta
# Procedure: (§1) Nonbound fibrinogen was removed by five washes with binding buffer. Avidin conjugated to alkaline phosphatase (Sigma), diluted in binding buffer, was added and incubated for two hours at 37° C. The plates were washed five times with binding buffer, and after addition of the substrate PNPP (Pierce), the enzyme activity was measured by the absorbance at 405 nm.
# GP IIb-IIIa (αIIbβ3) = molecular target: T2, GP IIb-IIIa (αIIbβ3) (Homo sapiens, UniProt P05106+P08514); assay: Fibrinogen binding to immobilized GP IIb-IIIa (αIIbβ3); conditions: biotinylated-fibrinogen 10 nM, immobilized GP IIb-IIIa; read-out: IC50 values for the fibrinogen binding assay αIIbβ3
# T2 construct: purchased Calbiochem
# Procedure: as §1
# T2 sequence (P08514 32-887 limits assumed): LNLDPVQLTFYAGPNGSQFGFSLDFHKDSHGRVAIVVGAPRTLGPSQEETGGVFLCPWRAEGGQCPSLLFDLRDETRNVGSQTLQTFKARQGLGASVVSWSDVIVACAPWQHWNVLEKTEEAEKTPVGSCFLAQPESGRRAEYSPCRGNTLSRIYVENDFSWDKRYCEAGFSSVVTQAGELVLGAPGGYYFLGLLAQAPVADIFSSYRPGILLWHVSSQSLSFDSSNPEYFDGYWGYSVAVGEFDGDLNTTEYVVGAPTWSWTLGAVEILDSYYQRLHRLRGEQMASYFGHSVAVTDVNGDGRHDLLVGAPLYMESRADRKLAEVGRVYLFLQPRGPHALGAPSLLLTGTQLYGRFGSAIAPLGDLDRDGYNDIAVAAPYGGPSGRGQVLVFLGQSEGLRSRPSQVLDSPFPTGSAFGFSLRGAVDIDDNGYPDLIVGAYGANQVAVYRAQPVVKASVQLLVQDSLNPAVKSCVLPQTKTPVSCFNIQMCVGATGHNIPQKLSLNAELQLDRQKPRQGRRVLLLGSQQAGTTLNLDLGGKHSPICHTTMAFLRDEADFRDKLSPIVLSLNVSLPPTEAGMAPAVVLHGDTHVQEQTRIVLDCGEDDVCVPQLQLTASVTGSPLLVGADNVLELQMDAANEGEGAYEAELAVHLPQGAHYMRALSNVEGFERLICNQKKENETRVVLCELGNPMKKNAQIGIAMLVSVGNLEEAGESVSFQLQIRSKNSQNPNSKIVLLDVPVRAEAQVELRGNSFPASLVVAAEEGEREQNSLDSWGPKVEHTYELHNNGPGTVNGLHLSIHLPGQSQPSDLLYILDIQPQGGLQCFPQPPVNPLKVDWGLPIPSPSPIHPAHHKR
# T2 sequence (P08514 891-1039 partner limits assumed): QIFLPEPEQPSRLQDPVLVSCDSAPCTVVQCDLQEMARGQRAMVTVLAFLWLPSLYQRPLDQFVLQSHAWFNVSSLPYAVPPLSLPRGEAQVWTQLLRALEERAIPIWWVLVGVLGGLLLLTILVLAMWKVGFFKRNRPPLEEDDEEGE
# T2 sequence (P05106 27-788): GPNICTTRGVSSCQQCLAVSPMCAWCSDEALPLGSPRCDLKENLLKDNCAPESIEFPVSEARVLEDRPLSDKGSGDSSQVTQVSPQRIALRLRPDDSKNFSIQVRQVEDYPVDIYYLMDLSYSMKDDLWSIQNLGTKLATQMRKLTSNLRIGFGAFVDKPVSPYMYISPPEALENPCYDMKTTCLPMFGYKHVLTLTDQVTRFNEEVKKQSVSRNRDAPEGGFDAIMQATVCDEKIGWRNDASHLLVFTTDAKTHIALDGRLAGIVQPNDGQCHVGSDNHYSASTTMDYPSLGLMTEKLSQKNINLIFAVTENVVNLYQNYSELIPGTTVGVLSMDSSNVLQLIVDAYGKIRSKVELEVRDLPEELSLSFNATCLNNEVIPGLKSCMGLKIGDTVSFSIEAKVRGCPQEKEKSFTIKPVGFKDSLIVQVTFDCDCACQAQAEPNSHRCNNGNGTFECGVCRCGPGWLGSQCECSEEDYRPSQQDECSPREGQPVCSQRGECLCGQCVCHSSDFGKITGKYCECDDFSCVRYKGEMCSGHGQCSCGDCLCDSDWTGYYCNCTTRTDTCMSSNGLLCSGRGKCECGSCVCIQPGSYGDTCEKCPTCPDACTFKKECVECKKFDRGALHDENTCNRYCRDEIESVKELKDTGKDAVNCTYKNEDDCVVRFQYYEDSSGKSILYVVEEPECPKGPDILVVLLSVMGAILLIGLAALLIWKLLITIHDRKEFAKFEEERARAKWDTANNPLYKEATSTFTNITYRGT
# T1 sequence (P06756 31-889 limits assumed): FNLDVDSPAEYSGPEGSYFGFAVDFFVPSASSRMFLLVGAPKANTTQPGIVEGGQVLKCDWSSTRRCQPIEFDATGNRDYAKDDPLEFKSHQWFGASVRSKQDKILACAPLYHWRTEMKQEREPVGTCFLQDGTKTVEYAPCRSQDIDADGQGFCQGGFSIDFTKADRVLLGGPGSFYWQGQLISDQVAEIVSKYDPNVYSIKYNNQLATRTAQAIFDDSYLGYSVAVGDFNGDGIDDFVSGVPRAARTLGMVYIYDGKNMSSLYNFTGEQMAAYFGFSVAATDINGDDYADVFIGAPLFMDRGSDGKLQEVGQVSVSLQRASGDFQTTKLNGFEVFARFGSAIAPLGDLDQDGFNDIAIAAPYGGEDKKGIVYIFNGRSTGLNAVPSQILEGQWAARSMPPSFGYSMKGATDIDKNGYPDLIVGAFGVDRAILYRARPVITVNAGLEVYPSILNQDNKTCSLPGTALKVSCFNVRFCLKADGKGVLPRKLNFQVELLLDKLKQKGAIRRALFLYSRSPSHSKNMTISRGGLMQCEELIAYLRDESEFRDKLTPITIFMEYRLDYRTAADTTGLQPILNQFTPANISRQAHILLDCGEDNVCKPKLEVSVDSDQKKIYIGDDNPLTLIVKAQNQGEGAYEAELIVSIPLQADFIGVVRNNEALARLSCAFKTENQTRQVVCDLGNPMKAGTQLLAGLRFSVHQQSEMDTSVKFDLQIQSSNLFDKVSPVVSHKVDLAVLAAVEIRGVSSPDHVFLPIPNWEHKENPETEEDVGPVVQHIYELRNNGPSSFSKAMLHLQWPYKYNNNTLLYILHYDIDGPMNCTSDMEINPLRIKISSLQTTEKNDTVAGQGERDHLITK
# T1 sequence (P06756 891-1048 partner limits assumed): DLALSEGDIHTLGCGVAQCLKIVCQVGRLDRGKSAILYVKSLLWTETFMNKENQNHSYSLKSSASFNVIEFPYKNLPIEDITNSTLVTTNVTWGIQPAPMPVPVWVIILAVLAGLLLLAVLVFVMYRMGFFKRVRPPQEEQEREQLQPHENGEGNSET
# T1 sequence (P05106 27-788): as the sequence (P05106 27-788) above
IC50 (placental αvβ3),IC50 (GP IIb-IIIa (αIIbβ3)),Structure (SMILES)
58 µM,1.3 µM,"CN([C@@H](CNC(=O)c1cc(=O)n2cc(OCCCNC(=N)N)ccc2c1)C(=O)O)S(=O)(=O)c1ccccc1 [Compound XXIV, (S)-2-(Benzenesulfonyl-methyl-amino)-3-{[7-(3-guanidino-propoxy)-4-oxo-4H-quinolizine-2-carbonyl]-amino}-propionic Acid Hydrochloride]"
67 µM,29 µM,O=C(O)CC(NC(=O)c1ccc2ccc(OCCCNC(=O)NCc3ccccc3)cn2c1=O)c1ccccc1 (racemic) [Compound X]
> 100 µM,1.5 µM,"NCCCOc1ccc2cc(C(=O)NCCC(=O)O)cc(=O)n2c1 [Compound XVI, 3-{[7-(3-Amino-propoxy)-4-oxo-4H-quinolizine-2-carbonyl]-amino}-propionic Acid Trifluoroacetic Acid Salt]"
2 µM,0.029 µM,"NCCOc1ccc2cc(C(=O)NC[C@H](NS(=O)(=O)c3ccccc3)C(=O)O)cc(=O)n2c1 [Compound XIX, (S)-3-{[7-(2-Amino-ethoxy)-4-oxo-4H-quinolizine-2-carbonyl]-amino}-2-benzenesulfonylamino-propionic Acid Trifluoroacetic Acid Salt]"
0.54 µM,0.045 µM,"N=C(N)NCCCOc1ccc2cc(C(=O)NCC(Nc3ncccn3)C(=O)O)cc(=O)n2c1 (stereo not drawn) [Compound XXII, 3-{[7-(3-Guanidino-propoxy)-4-oxo-4H-quinolizine-2-carbonyl]-amino}-2-(pyrimidin-2-ylamino)-propionic Acid Hydrochloride]"
13 µM,0.045 µM,"O=C(O)CC(NC(=O)c1ccc2cc(NCCSC(=S)Nc3cccnc3)ccn2c1=O)c1ccccc1 (racemic) [Compound XXXVIII, (+/−)-3-({4-Oxo-8-[2-(pyridin-3-ylthiocarbamoylsulfanyl)-ethylamino]4H-quinolizine-3-carbonyl}-amino)-3-phenyl-propionic acid trifluoroacetic acid salt]"
15 µM,1.25 µM,"O=C(NC[C@H](NS(=O)(=O)c1ccccc1)C(=O)O)c1cc(=O)n2cc(OCCCNc3ncccn3)ccc2c1 [Compound XXV, (S)-2-Benzenesulfonylamino-3-({4-oxo-7-[3-(pyrimidin-2-ylamino)-propoxy]-4H-quinolizine-2-carbonyl}-amino)-propionic Acid]"
19 µM,10 µM,"NCCNc1ccn2c(=O)c(C(=O)NC(CC(=O)O)c3ccccc3)ccc2c1 (racemic) [Compound XXXVI, (+/−)-3-{[8-(2-Amino-ethylamino)-4-oxo-4H-quinolizine-3-carbonyl]-amino}-3-phenyl-propionic Acid]"
9.4 µM,0.024 µM,"N=C(N)NCCCOc1ccn2c(=O)cc(C(=O)NC[C@H](NS(=O)(=O)c3ccccc3)C(=O)O)cc2c1 [Compound XXXI, (S)-2-Benzenesulfonylamino-3-{[8-(3-guanidino-propoxy)-4-oxo-4H-quinolizine-2-carbonyl]-amino)-propionic Acid Hydrochloride]"
0.91 µM,0.85 µM,"O=C(NCc1ccc2cc(C(=O)NC[C@H](NS(=O)(=O)c3ccccc3)C(=O)O)cc(=O)n2c1)OCc1ccccc1 [Compound XLV, (S)-2-Benzenesulfonylamino-3-([(7-benzyloxycarbonylamino-methyl)-4-oxo-4H-quinolizine-2-carbonyl]-amino)-propionic acid]"
21 µM,0.063 µM,"CN(CCN(C)c1ccn2c(=O)c(C(=O)NC(CC(=O)O)c3ccccc3)ccc2c1)C(=N)N (racemic) [Compound XXXIX, (+/−)-3-[(8-{Methyl-[2-(N-methyl-guanidino)-ethyl]-amino}-4-oxo-4H-quinolizine-3-carbonyl)-amino]-3-phenyl-propionic Acid Trifluoroacetic Acid Salt]"
1.3 µM,0.0096 µM,"N=C(N)NCCCOc1ccc2ccc(NC(=O)NC[C@H](NS(=O)(=O)c3ccccc3)C(=O)O)c(=O)n2c1 [Compound IX, (S)-2-Benzenesulfonylamino-3-{3-[7-(3-guanidino-propoxy)-4-oxo-4H-quinolizin-3-yl]-ureido}-propionic Acid Trifluoroacetate Salt]"
> 100 µM,0.82 µM,"CN([C@@H](CNC(=O)c1cc(=O)n2cc(OCCCN)ccc2c1)C(=O)O)S(=O)(=O)c1ccccc1 [Compound XXIII, (S)-3-{[7-(3-Amino-propoxy)-4-oxo-4H-quinolizine-2-carbonyl]-amino}-2-(benzenesulfonyl-methyl-amino)-propionic Acid Trifluoroacetic Acid Salt]"
0.0049 µM,2.6 µM,"N=C(N)NCc1ccc2cc(C(=O)NC[C@H](NC(=O)OCc3ccccc3)C(=O)O)cc(=O)n2c1 [Compound XLVIII, (S)-2-Benzyloxycarbonylamino-3-[(7-guanidinomethyl-4-oxo-4H-quinolizine-2-carbonyl)-amino]-propionic acid trifluoroacetic acid salt]"
15 µM,1.5 µM,"N=C(N)NCCCCCOc1ccn2c(=O)cc(C(=O)NC[C@H](NS(=O)(=O)c3ccccc3)C(=O)O)cc2c1 [Compound XXXV, (S)2-Benzenesulfonylamino-3-{[8-(5-guanidino-pentyloxy)-4-oxo-4H-quinolizine-2-carbonyl]-amino}propionic Acid Hydrochloride]"
44 µM,0.058 µM,"NCCCCCOc1ccc2ccc(C(=O)NC[C@H](NS(=O)(=O)c3ccccc3)C(=O)O)c(=O)n2c1 [Compound I, (S)-2-Benzenesulfonylamino-3-{[7-(5-aminopentyloxy)-4-oxo-4H-quinolizine-3-carbonyl]-amino}-propionic Acid TFA Salt]"
20 µM,20 µM,"O=C(O)CC(NC(=O)c1ccc2ccc(OCCCNC(=O)OCc3ccccc3)cn2c1=O)c1ccccc1 (racemic) [Compound XI, (+/−)-3-{[7-(3-Benzyloxycarbonylamino-propoxy)-4-oxo-4H-quinolizine-3-carbonyl]-amino}-3-phenyl-propionic Acid]"
> 100 µM,5.3 µM,"NCCCOc1ccc2cc(C(=O)O)cc(=O)n2c1 [Compound XIII, 7-(3-Amino-propoxy)-4-oxo-4H-quinolizine-2-carboxylic Acid Trifluoroacetic Acid Salt]"
96 µM,0.52 µM,"NCCCOc1ccc2ccc(C(=O)NC[C@H](NS(=O)(=O)c3ccccc3)C(=O)O)c(=O)n2c1 [Compound III, (S)-3-{[7-(3-Amino-propoxy)-4-oxo-4H-quinolizine-3-carbonyl]-amino}-2-benzenesulfonylamino-propionic Acid Trifluoroacetic Acid Salt]"
0.019 µM,0.44 µM,"NCc1ccc2cc(C(=O)NC[C@H](NS(=O)(=O)c3ccccc3)C(=O)O)cc(=O)n2c1 (stereo in doubt) [Compound XXVI, 3-[(7-Aminomethyl-4-oxo-4H-quinolizine-2-carbonyl)-amino]-2-benzenesulfonylamino-propionic Acid Trifluoroacetic Acid Salt]"
0.72 µM,14.8 µM,"N=C(N)NCc1ccc2cc(C(=O)NC(CC(=O)O)c3cccnc3)cc(=O)n2c1 (racemic) [Compound XLIII, (+/−)-3-[(7-guanidinomethyl-4-oxo-4H-quinolizine-2-carbonyl]-amino)-3-pyridin-3-yl-propionic acid bis-trifluoroacetic acid salt]"
> 100 µM,1.8 µM,"O=C(NC[C@H](NS(=O)(=O)c1ccccc1)C(=O)O)Nc1ccc2ccc(OCCCNC(=O)OCc3ccccc3)cn2c1=O [Compound VI, (S)-2-Benzenesulfonylamino-3-{3-[7-(3-benzyloxycarbonylamino-propoxy)-4-oxo-4H-quinolizine-3-yl]-ureido}-propionic Acid]"
8.7 µM,0.033 µM,"N=C(N)NCCCOc1ccc2ccc(C(=O)NC[C@H](NS(=O)(=O)c3ccccc3)C(=O)O)c(=O)n2c1 [Compound IV, (S)-2-Benzenesulfonylamino-3-{[7-(3-guanidino-propoxy)-4-oxo-4H-quinolizine-3-carbonyl]-amino}-propionic Acid Hydrochloride]"
0.03 µM,6 µM,"N=C(N)NCc1ccc2cc(C(=O)NCC(Nc3ncccn3)C(=O)O)cc(=O)n2c1 (racemic) [Compound XLIV, (+/−)-3-[(7-guanidinomethyl-4-oxo-4H-quinolizine-2-carbonyl)-amino]-2-(pyrimidin-2-ylamino)-propionic acid bis-trifluoroacetic acid salt]"

Structure (SMILES),IC50 (placental αvβ3),IC50 (GP IIb-IIIa (αIIbβ3))
"N=C(N)NCCCCOc1ccn2c(=O)cc(C(=O)NC[C@H](NS(=O)(=O)c3ccccc3)C(=O)O)cc2c1 [Compound XXXIII, (S)-2-Benzenesulfonylamino-3-{[8-(4-guanidino-butoxy)-4-oxo-4H-quinolizine-2-carbonyl]-amino}-propionic Acid Hydrochloride]",15 µM,0.044 µM
"N=C(N)NCCCCOc1ccc2cc(C(=O)NC[C@H](NS(=O)(=O)c3ccccc3)C(=O)O)cc(=O)n2c1 [Compound XVIII, (S)-2-Benzenesulfonylamino-3-{[7-(4-guanidino-butoxy)-4-oxo-4H-quinolizine-2-carbonyl]-amino}-propionic Acid Hydrochloride]",2.2 µM,0.0053 µM
"NCCCCOc1ccn2c(=O)cc(C(=O)NC[C@H](NS(=O)(=O)c3ccccc3)C(=O)O)cc2c1 [Compound XXXII, (S)-3-{[8-(4-Amino-butoxy)-4-oxo-4H-quinolizine-2-carbonyl]-amino}-2-benzenesulfonylamino-propionic Acid Trifluoroacetic Acid Salt]",12 µM,0.0055 µM
